{
  "source": "patent US20120165223A1",
  "about": "(priority 2006, published 2012)",
  "system": "anaerobic bacteria",
  "assay": "Composition of flora in feces of HFA mice: total number of anaerobic bacteria",
  "format": "in vivo",
  "details": "17th day, 500 μg/Ml in drinking water",
  "from_the_text": "For the one week, the feces were picked asceptially with the interval of two to three days. The feces collected of colistin sulfate administeration, 2nd, 4th, 7th, 10th, 13th and 17th days are put in an encapsulated tube and moved to an anaerobic chamber immediately and is put in the PRAS (Prereduced and anaerobically sterilized) TGY medium with the ten times dilution of the weight of feces. The total number of anaerobic bacteria, the number of Bacteroides fragilis and Bifidobacterium spp. of the anaerobic bacteria, the number of aerobic bacteria, and the number of Esherichia coli and Enterococcus spp. of the aerobic bacteria are measured. […] (FIG. 7)",
  "data": [
    {"substance": "colistin sulfate", "values": [
      {"measurement": "Total number of anaerobic bacteria in feces in comparison with HFA mice", "value": "increased by about twice"}
    ]}
  ]
}
